# Reference: the supplement of paper PMC10307832
# Legend:
# Assay in all cases: relative viability (nuclei count vs DMSO), 5 days (fraction); higher = more cells survive
# [1] = compound: C1COCCN1C2=NC(=NC3=C2OC4=C3C=CC=N4)C5=CC(=CC=C5)NC(=O)C6=CN=C(C=C6)N + COc1cccc2cc(-c3nc([C@H]4CC[C@H](C(=O)O)CC4)n4ncnc(N)c34)[nH]c12 [OSI-027] (partner 0.5 µM)
# Method in brief: (§1)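 One day after seeding in 1536-well plates, lung cancer cell lines were dosed by pin tool. Dosing was either single-drug or a fixed anchor-drug dose plus five library-drug doses (not always all listed) in √10 steps. After 5 days, nuclei were stained in one fix-and-stain step and counted on 4× images, and relative viability is the nuclei count of treated wells over that of vehicle wells, given as the median of duplicate plates.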
# [2] = compound: C1COCCN1C2=NC(=NC3=C2OC4=C3C=CC=N4)C5=CC(=CC=C5)NC(=O)C6=CN=C(C=C6)N + Nc1nc2[nH]cc(CCc3ccc(C(=O)N[C@@H](CCC(=O)O)C(=O)O)cc3)c2c(=O)[nH]1 [Pemetrexed] (partner 0.2 µM)
# Method in brief: as §1
# [3] = compound: CN1CCC(CNc2ccc3ncc(-c4cccc(OC(F)(F)F)c4)n3n2)CC1 [SGI-1776] + CS(=O)(=O)N1CCN(Cc2cc3nc(-c4cccc5[nH]ncc45)nc(N4CCOCC4)c3s2)CC1 [Pictilisib] (partner 1 µM)
# Method in brief: as §1
# [4] = compound: C1COCCN1C2=NC(=NC3=C2OC4=C3C=CC=N4)C5=CC(=CC=C5)NC(=O)C6=CN=C(C=C6)N + O=C(CCCCCCC(=O)Nc1ccccc1)NO [Vorinostat] (partner 1 µM)
# Method in brief: as §1
Cell Line,relative viability ([1]; first compound 0.02 µM),relative viability ([1]; first compound 0.06325 µM),relative viability ([1]; first compound 0.2 µM),relative viability ([1]; first compound 0.6325 µM),relative viability ([1]; first compound 2 µM),relative viability ([2]; first compound 0.02 µM),relative viability ([2]; first compound 0.06325 µM),relative viability ([2]; first compound 0.2 µM),relative viability ([2]; first compound 0.6325 µM),relative viability ([2]; first compound 2 µM),relative viability ([3]; first compound 0.08 µM),relative viability ([3]; first compound 0.8 µM),relative viability ([3]; first compound 2.53 µM),relative viability ([3]; first compound 8 µM),relative viability ([4]; first compound 0.02 µM),relative viability ([4]; first compound 0.06325 µM),relative viability ([4]; first compound 0.2 µM),relative viability ([4]; first compound 0.6325 µM),relative viability ([4]; first compound 2 µM)
201T,0.858,0.743,0.72,0.515,0.851,0.285,0.301,0.307,0.38,0.34,0.7,0.718,0.687,0.6,0.964,1.03,0.931,0.94,0.769
A549,–,–,–,–,–,–,–,–,–,–,0.566,0.513,0.392,0.267,–,–,–,–,–
A-427,0.407,0.416,0.469,0.399,0.394,1,0.985,0.944,0.914,0.739,0.704,0.694,0.824,0.657,0.831,0.904,0.855,0.838,0.798
ABC-1,0.462,0.451,0.461,0.368,0.407,–,–,–,–,–,0.675,0.666,0.745,0.66,1.1,0.976,0.81,1.22,0.789
BEN,0.283,0.297,0.295,0.274,0.389,0.737,0.795,0.584,0.693,0.665,0.736,0.643,0.504,0.396,0.545,0.556,0.589,0.619,0.448
CAL-12T,0.579,0.583,0.446,0.477,0.323,1.2,1.27,1.17,1.32,0.412,0.559,0.592,0.341,0.385,0.789,1,0.769,0.601,0.431
COR-L23,0.937,0.733,0.739,0.704,0.432,0.202,0.204,0.194,0.162,0.167,0.916,0.868,0.821,0.667,0.517,0.525,0.458,0.403,0.381
COR-L 105,0.623,0.645,0.576,0.556,0.414,1.13,1.25,0.967,1.16,0.642,0.409,0.389,0.342,0.308,0.787,0.839,0.701,0.768,0.603
Calu-6,–,–,–,–,–,–,–,–,–,–,0.974,0.911,0.808,0.482,–,–,–,–,–
ChaGo-K-1,0.529,0.566,0.523,0.586,0.466,0.271,0.256,0.251,0.237,0.237,0.699,0.844,0.49,0.415,0.746,0.829,0.73,0.67,0.515
EBC-1,–,–,–,–,–,–,–,–,–,–,0.436,0.374,0.299,0.15,–,–,–,–,–
EKVX,0.626,0.484,0.888,0.673,0.558,0.436,0.396,0.486,0.382,0.323,0.421,0.453,0.455,0.379,0.698,0.794,0.678,0.644,0.556
EMC-BAC-2,0.346,0.406,0.333,0.346,0.32,0.458,0.462,0.465,0.462,0.444,0.539,0.555,0.567,0.485,0.533,0.376,0.329,0.413,0.419
EPLC-272H,0.311,0.305,0.289,0.247,0.328,0.301,0.318,0.272,0.298,0.319,0.315,0.318,0.188,0.259,0.339,0.487,0.286,0.429,0.53
H3255,0.626,0.56,0.464,0.465,0.552,0.507,0.558,0.528,0.524,0.491,0.479,0.451,0.456,0.392,0.814,0.744,0.788,0.781,0.698
HARA,0.52,0.609,0.381,0.391,0.283,0.253,0.261,0.204,0.246,0.141,0.445,0.373,0.306,0.243,0.463,0.597,0.51,0.431,0.361
HCC-15,0.709,0.702,0.644,0.506,0.456,0.225,0.228,0.217,0.218,0.242,0.657,0.839,0.665,0.468,0.859,0.929,0.881,0.792,0.575
HCC-44,0.458,0.567,0.39,0.391,0.419,0.616,0.639,0.676,0.682,0.653,0.662,0.589,0.653,0.42,1.03,1.15,1.2,1.22,1.02
HCC-78,0.409,0.389,0.369,0.407,0.329,0.913,0.944,0.926,0.929,0.64,0.27,0.231,0.199,0.164,0.444,0.5,0.431,0.326,0.334
